Reference: EP4813999A1, “NOVEL PEPTIDE DERIVATIVE AND PHARMACEUTICAL COMPOSITION FOR PREVENTING OR TREATING MACULAR DEGENERATION COMPRISING SAME” (Supadelixir Inc., priority 2023, dated 2026)

Experiments:
[1] = test system: CNV-induced male chinchilla rabbits; test: Macular degeneration animal model: laser-induced CNV, retinal fluorescein fundus imaging; assay type: in vivo; conditions: instillation 50 µL twice daily, Day 7 and Day 14, versus induced control group (G1)
Source text: As a macular degeneration animal model, CNV-induced male chinchilla rabbits were used. The efficacy test using the CNV animal model was commissioned to HLB Biostep Co., Ltd. (formerly Notus Co., Ltd.). In order to induce CNV formation, a mydriatic agent (Mydriacyl 1% eye drops) was instilled into the right eye of each chinchilla rabbit, followed by anesthesia. Thereafter, the right eye was irradiated using a laser (LIGHTLas 532, LIGHTMED, USA) under conditions of a wavelength of 532 nm and a power of 150 mW for 0.1 seconds, thereby creating six wounds in the 6 o'clock direction centered on the optic nerve.
An induced control group (G1) was repeatedly administered 0.9% aqueous sodium chloride solution (vehicle) by instillation twice daily. […]
After initiation of administration to each group, a mydriatic agent (Mydriacyl 1% eye drops) was instilled into the right eye of each animal on Day 0, Day 7, and Day 14, followed by anesthesia. […] Confirmation of retinal CNV and evaluation of pharmacological efficacy were performed using retinal fluorescein fundus images, and image analysis was performed using the ImageJ software (NIH, Bethesda, MD) to analyze fluorescence intensity at irradiated sites.
Assuming normality for the results of the present test, significance between test groups was analyzed using parametric one-way analysis of variance (one-way ANOVA). […]

[2] = test system: HUVECs; test: VEGF-induced tube formation on Matrigel; assay type: cell-based, human; conditions: VEGF 10 ng/ml, test substance 0.1, 1, 10, 100 nM, 24 hours
Experimental: The anti-angiogenic activity of the test substance (SE101B2L) was evaluated using HUVECs. HUVECs were cultured in CEFOgro-HUVEC basal medium (CEFO Co., Ltd.) supplemented with growth supplements containing vascular endothelial cell growth-related factors and serum (HUVEC supplements, CEFO Co., Ltd.), which was used as vascular endothelial cell growth medium (hereinafter denoted as "growth medium").
The experiment was conducted by dividing the groups into an untreated group, a group treated with VEGF alone, and a group co-treated with VEGF and the test substance (SE101B2L).
First, tube formation ability was confirmed to determine whether the test substance inhibited VEGF-induced angiogenesis. HUVECs were seeded into a Matrigel-coated 48-well plate at 5 × 10^4 cells per well together with 0.5 ml of growth medium. VEGF was added to each VEGF-treated group to a final concentration of 10 ng/ml, while the test substance was added to each test substance-treated group to final concentrations of 0.1, 1, 10, and 100 nM. The test plate was incubated in an incubator with 5% CO2 at 37°C for 24 hours. After 24 hours, the degree of tube formation was observed under a microscope and photographed. The total tube length in each image was measured using the ImageJ program. The results were converted to values relative to the tube length for the untreated group.

Q: What does the source list for “decylbenzoyl-Cys-Phe-Lys-amide [SE101B2L]”?
A: retinal fluorescence intensity ([1]; G3: 3750 ppm): statistically significantly lower than those in the induced control group (G1) (p < 0.001); retinal fluorescence intensity ([1]; G4: 187.5 ppm): statistically significantly lower than those in the induced control group (G1) (p < 0.001); tube formation ability (total tube length) [2]: reduced by the test substance in a concentration-dependent manner
